# Data from patent publication US8946154B2 (BCN Peptides, S.A., priority 2009, dated 2015).
# Numbered stars: 1 amine (or outer) side, 2 acyl side, 3 side chain; on linkers, the order of the positions; unused ones are H or OH. Bridge positions count the residues as written; N and C are the ends. Square brackets hold non-standard residues; d marks the D form. Side chains are listed from the residue outwards. Peptide text beside a SMILES is read from it. * marks the point of attachment. Ethylenediamine = C(CN[*:2])N[*:1]; Hyp = O=C(O)[C@@H]1C[C@@H](O)CN1; Phg = N[C@H](C(=O)O)c1ccccc1; CO = O=C([*:1])[*:2]; Bn = c1ccc(C*)cc1
# Tests used:
# [1] = Stability in 90% human serum
# sstr3 receptor = sstr3 receptor (Homo sapiens, UniProt P32745); conditions: literature, background; cited from earlier work
# Chain of sstr3 receptor (P32745 whole entry): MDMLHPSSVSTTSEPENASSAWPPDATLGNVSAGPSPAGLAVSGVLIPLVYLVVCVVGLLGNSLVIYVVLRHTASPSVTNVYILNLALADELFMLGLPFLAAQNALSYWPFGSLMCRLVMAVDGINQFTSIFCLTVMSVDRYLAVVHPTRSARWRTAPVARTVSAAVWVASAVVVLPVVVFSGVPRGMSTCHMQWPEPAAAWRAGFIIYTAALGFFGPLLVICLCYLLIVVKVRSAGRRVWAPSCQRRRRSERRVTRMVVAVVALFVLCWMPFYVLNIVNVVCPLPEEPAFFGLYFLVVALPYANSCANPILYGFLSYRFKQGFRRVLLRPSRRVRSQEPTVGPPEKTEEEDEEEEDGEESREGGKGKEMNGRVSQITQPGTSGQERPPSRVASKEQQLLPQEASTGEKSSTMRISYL
# sstr2 receptor = sstr2 receptor (Homo sapiens, UniProt P30874); conditions: literature, background; cited from earlier work
# Chain of sstr2 receptor (P30874 whole entry): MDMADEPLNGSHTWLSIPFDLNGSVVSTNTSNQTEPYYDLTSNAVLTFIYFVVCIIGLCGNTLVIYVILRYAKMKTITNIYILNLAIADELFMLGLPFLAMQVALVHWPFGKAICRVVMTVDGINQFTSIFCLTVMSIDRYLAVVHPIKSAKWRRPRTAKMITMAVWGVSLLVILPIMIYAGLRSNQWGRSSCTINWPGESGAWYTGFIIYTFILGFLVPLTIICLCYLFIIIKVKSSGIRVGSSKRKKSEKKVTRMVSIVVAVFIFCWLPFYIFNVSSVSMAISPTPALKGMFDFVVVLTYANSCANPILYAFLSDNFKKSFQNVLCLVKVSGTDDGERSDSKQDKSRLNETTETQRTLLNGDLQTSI
# sstr4 receptor = sstr4 receptor (Homo sapiens, UniProt P31391); conditions: literature, background; cited from earlier work
# Chain of sstr4 receptor (P31391 whole entry): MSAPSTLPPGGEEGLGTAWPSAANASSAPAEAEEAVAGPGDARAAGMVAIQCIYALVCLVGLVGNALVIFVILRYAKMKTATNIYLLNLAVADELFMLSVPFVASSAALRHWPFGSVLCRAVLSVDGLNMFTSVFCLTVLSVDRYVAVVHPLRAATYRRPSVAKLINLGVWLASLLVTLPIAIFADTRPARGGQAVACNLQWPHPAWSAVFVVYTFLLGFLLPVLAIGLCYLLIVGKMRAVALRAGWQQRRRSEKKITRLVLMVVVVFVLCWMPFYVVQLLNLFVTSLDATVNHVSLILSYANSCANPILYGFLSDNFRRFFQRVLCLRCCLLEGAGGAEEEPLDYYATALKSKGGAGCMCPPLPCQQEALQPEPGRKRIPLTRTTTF
# sstr1 receptor = sstr1 receptor (Homo sapiens, UniProt P30872); conditions: literature, background; cited from earlier work
# Chain of sstr1 receptor (P30872 whole entry): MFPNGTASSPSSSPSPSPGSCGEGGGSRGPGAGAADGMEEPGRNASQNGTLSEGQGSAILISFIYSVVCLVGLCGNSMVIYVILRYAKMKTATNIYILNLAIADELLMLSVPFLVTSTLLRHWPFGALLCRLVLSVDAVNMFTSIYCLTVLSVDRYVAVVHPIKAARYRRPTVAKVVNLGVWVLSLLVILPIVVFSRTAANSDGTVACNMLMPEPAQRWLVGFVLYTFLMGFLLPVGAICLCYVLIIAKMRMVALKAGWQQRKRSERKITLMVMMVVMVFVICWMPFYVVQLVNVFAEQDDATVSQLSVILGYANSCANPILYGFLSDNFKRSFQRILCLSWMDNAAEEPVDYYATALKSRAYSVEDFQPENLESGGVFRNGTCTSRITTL
Structure (SMILES),half-life [1] [h],affinity for the sstr3 receptor (sstr3 receptor),affinity for the sstr2 receptor (sstr2 receptor),affinity for the sstr4 receptor (sstr4 receptor),affinity for the sstr1 receptor (sstr1 receptor)
Cc1cc(C)c(C[C@@H]2NC(=O)[C@H](CC(N)=O)NC(=O)[C@H](CCCCN)NC(=O)[C@@H](NC(=O)CNC(=O)[C@H](C)N)CSSC[C@@H](C(=O)O)NC(=O)[C@H](CO)NC(=O)[C@H]([C@@H](C)O)NC(=O)[C@H](Cc3c(C)cc(C)cc3C)NC(=O)[C@H]([C@@H](C)O)NC(=O)[C@H](CCCCN)NC(=O)[C@H](Cc3c[nH]c4ccccc34)NC(=O)[C@H](Cc3c(C)cc(C)cc3C)NC2=O)c(C)c1 [Compound 30],93.3,–,–,–,–
CC(C)[C@@H]1NC(=O)[C@H](CCCCN)NC(=O)[C@@H](Cc2c[nH]c3ccccc23)NC(=O)[C@H](Cc2ccc(O)cc2)NC(=O)[C@@H](NC(=O)[C@H](N)Cc2ccccc2)CSSC[C@@H](C(=O)N[C@@H](Cc2c[nH]c3ccccc23)C(N)=O)NC1=O [vapreotide] (H-[dF]CY[dW]KVCW-NH2; disulfide 2-7),–,moderate-low affinity,high affinity,do not bind,do not bind
C[C@@H](O)[C@@H]1NC(=O)[C@H](CCCCN)NC(=O)[C@@H](Cc2c[nH]c3ccccc23)NC(=O)[C@H](Cc2ccccc2)NC(=O)[C@@H](NC(=O)[C@H](N)Cc2ccccc2)CSSC[C@@H](C(=O)N[C@H](CO)[C@@H](C)O)NC1=O [octreotide],–,moderate-low affinity,high affinity,do not bind,do not bind
NCCCC[C@@H]1NC(=O)[C@@H](Cc2c[nH]c3ccccc23)NC(=O)[C@H](c2ccccc2)NC(=O)[C@@H]2C[C@@H](OC(=O)NCCN)CN2C(=O)[C@H](Cc2ccccc2)NC(=O)[C@H](Cc2ccc(OCc3ccccc3)cc2)NC1=O [pasireotide] (cyclo([Hyp]([CO-Ethylenediamine])[Phg][dW]KY(Bn)F)),–,–,an order of magnitude lower,lost,–
CCCCCCCCCCCCCCCC(=O)NCCCC[C@@H]1NC(=O)[C@@H](NC(=O)CNC(=O)[C@H](C)N)CSSC[C@@H](C(=O)O)NC(=O)[C@H](CO)NC(=O)[C@H]([C@@H](C)O)NC(=O)[C@H](Cc2ccccc2)NC(=O)[C@H]([C@@H](C)O)NC(=O)[C@H](CCCCN)NC(=O)[C@H](Cc2c[nH]c3ccccc23)NC(=O)[C@H](Cc2ccccc2)NC(=O)[C@H](Cc2ccccc2)NC(=O)[C@H](CC(N)=O)NC1=O [Compound 21],41.7,–,–,–,–
CC(C)[C@@H]1NC(=O)[C@H](CCCCN)NC(=O)[C@@H](Cc2c[nH]c3ccccc23)NC(=O)[C@H](Cc2ccc(O)cc2)NC(=O)[C@@H](NC(=O)[C@H](N)Cc2ccc3ccccc3c2)CSSC[C@@H](C(=O)N[C@H](C(N)=O)[C@@H](C)O)NC1=O [lanreotide],–,moderate-low affinity,high affinity,do not bind,do not bind

# More lines, main results first:
half-life [1] [h],Structure (SMILES),affinity for the sstr3 receptor (sstr3 receptor),affinity for the sstr2 receptor (sstr2 receptor),affinity for the sstr4 receptor (sstr4 receptor),affinity for the sstr1 receptor (sstr1 receptor)
24.6,Cc1cc(C)c(C[C@@H]2NC(=O)[C@H](Cc3ccccc3)NC(=O)[C@H](CC(N)=O)NC(=O)[C@H](CCCCN)NC(=O)[C@@H](NC(=O)CNC(=O)[C@H](C)N)CSSC[C@@H](C(=O)O)NC(=O)[C@H](CO)NC(=O)[C@H]([C@@H](C)O)NC(=O)[C@H](Cc3ccccc3)NC(=O)[C@H]([C@@H](C)O)NC(=O)[C@H](CCCCN)NC(=O)[C@@H](Cc3c[nH]c4ccccc34)NC2=O)c(C)c1 [Compound 25],–,–,–,–
26.2,Cc1cc(C)c(C[C@@H]2NC(=O)[C@H](CC(N)=O)NC(=O)[C@H](CCCCN)NC(=O)[C@@H](NC(=O)CNC(=O)[C@H](C)N)CSSC[C@@H](C(=O)O)NC(=O)[C@H](CO)NC(=O)[C@H]([C@@H](C)O)NC(=O)[C@H](Cc3ccccc3)NC(=O)[C@H]([C@@H](C)O)NC(=O)[C@H](CCCCN)NC(=O)[C@@H](Cc3c[nH]c4ccccc34)NC(=O)[C@H](Cc3ccccc3)NC2=O)c(C)c1 [Compound 24],–,–,–,–
41,Cc1cc(C)c(C[C@@H]2NC(=O)[C@H]([C@@H](C)O)NC(=O)[C@H](CCCCN)NC(=O)[C@@H](Cc3c[nH]c4ccccc34)NC(=O)[C@H](Cc3ccccc3)NC(=O)[C@H](Cc3ccccc3)NC(=O)[C@H](CC(N)=O)NC(=O)[C@H](CCCCN)NC(=O)[C@@H](NC(=O)CNC(=O)[C@H](C)N)CSSC[C@@H](C(=O)O)NC(=O)[C@H](CO)NC(=O)[C@H]([C@@H](C)O)NC2=O)c(C)c1 [Compound 26],–,–,–,–
43.9,Cc1cc(C)c(C[C@@H]2NC(=O)[C@H](CC(N)=O)NC(=O)[C@H](CCCCN)NC(=O)[C@@H](NC(=O)CNC(=O)[C@H](C)N)CSSC[C@@H](C(=O)O)NC(=O)[C@H](CO)NC(=O)[C@H]([C@@H](C)O)NC(=O)[C@H](Cc3ccccc3)NC(=O)[C@H]([C@@H](C)O)NC(=O)[C@H](CCCCN)NC(=O)[C@H](Cc3c[nH]c4ccccc34)NC(=O)[C@H](Cc3c(C)cc(C)cc3C)NC2=O)c(C)c1 [Compound 27],–,–,–,–
